Assays:
[1] = Persistence of stanozolol in the joint / synovial fluid after intrasynovial injection; assay type: in vivo, horses and humans
Source text: A single intrasynovial injection of said formulations allows the stanozolol to be brought up to and maintained at pharmacologically active concentrations in the joint for 6-7 days, a period which is long enough to produce evident clinical benefits and fully compatible with long-term treatments.
Two examples of formulation of a typical preparation containing stanozolol administrable by the intrasynovial route to horses and humans, which remains in the synovial fluid for 5-7 days, one set out below: • a) Active ingredient: micronised stanozolol (having a prevalent population of particles with a diameter of less than 20 µm) 5 mg; Water for injectables q.s. to 1 ml. • b) Active ingredient: Micronised Stanozolol: (having a prevalent population of particles with diameter of less than 20 µm) 5 mg/ml

Solubility in water = assay type: physicochemical; settings: crystalline substance
Source text: The formulations according to the invention of stanozolol in an aqueous carrier are therefore aqueous suspensions, and it is necessary to prevent the suspended crystals of the drug from causing mechanical lesions such as abrasions and erosions despite the pressures and friction generated by the movement of the joint on the surfaces of the cartilage and synovial membrane.

For `C[C@]12Cc3c[nH]nc3C[C@@H]1CC[C@@H]1[C@@H]2CC[C@@]2(C)[C@H]1CC[C@]2(C)O` [stanozolol], the “maintained at pharmacologically active concentrations in the joint” value ([1]; single intrasynovial injection of the micronised aqueous suspension formulations) was 6-7 days, the “remains in the synovial fluid” value ([1]; typical preparation with micronised stanozolol 5 mg/ml, intrasynovial route, horses and humans) was 5 to 7 days and the solubility in water (Solubility in water) was “insoluble in water”.

— EP1891940B1, “Intrasynovial formulations of stanozolol” (Acme Drugs S.r.l., priority 2006, dated 2008)
